In this test the target is T1, human MRGPR X4 (Homo sapiens, UniProt Q96LA9).
T1 construct: expressed in transfected cells
Description: MRGPR X4 antagonist activity, IP-One Gq HTRF assay in stably transfected HEK cells. It is filed as cell-based. As to the method:
HEK cells stably transfected to express human MIRGPR X4 were maintained in an incubator at 37° C. with 5% CO2 and grown in DMEM media with 10% fetal bovine serum (FBS) and […] each of sodium pyruvate, Glutamax, penicillin/streptomycin, and Geneticin. HEK cells stably transfected to express mouse MRGPR A1 were maintained in the same incubator and grown in DMEM media with 10% FBS, 1% each of sodium pyruvate, Glutamax, penicillin/streptomycin, Geneticin, and 2.2 mg/mL Hygromycin.
Cells were plated in a 384-well assay plate at 20,000 cells per well in 12 μL of Opti-MEM and kept in an incubator overnight. On the day of the assay, compounds solubilized at 10 mM in DMSO were added as a 10-point curve (10 uM final top concentration with 1:3 serial dilutions) using a Tecan D300E digital dispenser. Agonists were diluted in assay buffer (final concentrations of 5.7 mM Tris-HCl, 43 mM NaCl, 50 mM LiCl, pH=8) and 2 μL of the appropriate agonist are added to each well. Final concentrations of agonists were 10 μM bilirubin, 20 μM deoxycholic acid, or 100 μM conjugated bilirubin (obtained from Lee Biosolutions, catalog #910-12). Final concentrations of DMSO were kept consistent across the plate. Plates were incubated in the dark for 1 h at 37° C. and then for 30 minutes at room temperature. IP-1 standards and HTRF detection reagents were added according to the IP-One—Gq Kit purchased from Cisbio (part number 62IPAPEJ) and incubated in the dark for 1 h at room temperature. The plate was read on a Molecular Devices SpectraMax iD5 plate reader. The HTRF ratio was calculated from the raw data and graphed using GraphPad Prism to calculate an IC50 value for each compound.
On the technique in general: In TR-FRET formats the signal depends on donor and acceptor labels being close together.

The mark [1] stands for this setting: versus 20 μM deoxycholic acid agonist, HEK cells expressing human MRGPR X4, read-out: MRGPRX4 Antagonist Activity.

SMILES strings stand for the structures. Like-named read-outs stand apart in the source and are kept apart here.

T1 sequence (Q96LA9 whole entry): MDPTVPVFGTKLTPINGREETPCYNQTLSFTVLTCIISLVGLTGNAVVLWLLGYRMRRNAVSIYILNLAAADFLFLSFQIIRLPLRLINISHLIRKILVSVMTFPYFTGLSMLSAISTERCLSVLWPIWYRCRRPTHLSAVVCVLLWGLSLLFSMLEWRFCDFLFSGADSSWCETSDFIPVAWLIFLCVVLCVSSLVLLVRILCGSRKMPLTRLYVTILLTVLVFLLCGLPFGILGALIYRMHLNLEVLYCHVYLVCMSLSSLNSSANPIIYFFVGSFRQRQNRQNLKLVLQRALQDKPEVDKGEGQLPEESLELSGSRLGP

In the case of `Cc1ncccc1CCNC(=O)c1nn(Cc2ccc(C(F)(F)F)cc2)c2ccccc12` [Compound 39], the IC50 lay in the range of 100 to 500 nM.
On the same count and under the same terms, next, `Cc1ccc(Cn2nc(C(=O)O)c3cc(Cl)ccc32)cc1` [Compound 330]: over 2500 nM; `O=C(NCCc1cccnc1)c1nn(Cc2cccc(Cl)c2)c2ccccc12` [Compound 87]: 501 to 1000 nM; `O=C(NCCn1cncn1)c1nn(Cc2ccc(Cl)cc2)c2ccccc12` [Compound 398]: over 2500 nM.
The same measure, in the same setting: the result for `CC(C)(C)c1ccc(Cn2nc(C(=O)NCCc3ccccn3)c3ccccc32)cc1` [Compound 112] reads 1000 to 2500 nM; that for `Cc1ccc(Cn2nc(C(=O)NCCc3ccnn3C)c3ccccc32)cc1` [Compound 124], over 2500 nM; that for `O=C(CNC(=O)c1nn(Cc2ccc(Cl)cc2)c2ccccc12)c1cccnc1` [Compound 132], 100 to 500 nM.
`O=C(O)c1nn(Cc2ccc(C(F)(F)F)cc2Cl)c2ccccc12` [Compound 317] came in with an IC50 of 501 to 1000 nM.
`COc1ccnc(CCNC(=O)c2nn(Cc3ccc(Cl)cc3)c3ccccc23)c1` [Compound 62] showed an IC50 of 100 to 500 nM.
As to `O=C(NCCc1c[nH]c2ccc(O)cc12)c1nn(Cc2ccc(Cl)cc2)c2ccccc12` [Compound 338], the IC50 fell in the range of 100 to 500 nM.
Regarding `O=C(NS(=O)(=O)c1ccccc1F)c1nn(Cc2ccc(OC(F)F)cc2)c2ccccc12` [Compound 269], under setting [1], the IC50 lay in the range of 1000 to 2500 nM.
On to `O=C(NCCc1ccccn1)c1cn(Cc2cccc(F)c2)c2ccccc12` [Compound 214], for which the IC50 lay in the range of 1000 to 2500 nM.
Regarding `O=C(CCc1cccnc1)Nc1nn(Cc2ccc(Cl)cc2)c2ccccc12` [Compound 148, N-(1-(4-chlorobenzyl)-1H-indazol-3-yl)-3-(pyridin-3-yl)-propanamide], under setting [1], the IC50 is 1000 to 2500 nM.
For the molecule `Cc1[nH]c2ccccc2c1CCNC(=O)c1nn(Cc2ccc(Cl)cc2)c2ccccc12` [Compound 340], the IC50 is over 2500 nM.
Still for that read-out and setting: next, `O=C(NCCc1nc2c(s1)CCCC2)c1nn(Cc2ccc(Cl)c(Cl)c2)c2ccccc12` [Compound 56]: 100 to 500 nM.
Take `COc1ccc(C(=O)Cn2nc(C(=O)NCCc3nnc4ccccn34)c3ccccc32)cc1` [Compound 484]: under setting [1], the IC50 lay within 1000 to 2500 nM.
Regarding `O=C(NCCc1cccnc1)c1nn(Cc2ccc(F)cc2)c2ccccc12` [Compound 57], the IC50 was 100 to 500 nM.
Still for that read-out and setting: the result for `O=C(NCCc1ccncc1)c1cn(Cc2ccc(Cl)cc2)c2ccccc12` [Compound 163] reads 100 to 500 nM.
With `O=C(NCCc1nnc2ccccn12)c1nn(CCCOc2ccc(Cl)cc2)c2ccccc12` [Compound 470], the IC50 under setting [1] was over 2500 nM.
Regarding `Cc1cccc(S(=O)(=O)NC(=O)c2cn(Cc3ccc(OC(F)F)cc3)c3ccccc23)c1` [Compound 313], under setting [1], the IC50 was over 2500 nM.
With `N#Cc1ccc(CCNC(=O)c2cn(Cc3ccc(Cl)cc3)c3ccccc23)cn1` [Compound 185], the IC50 fell in the range of 501 to 1000 nM.
Still for that read-out and setting: next, `Cc1ccc(Cn2nc(C(=O)NCCc3nc(C)cs3)c3ccccc32)cc1` [Compound 38]: 100 to 500 nM.
On to `Cc1ccc(Cn2nc(C(=O)NCCc3c[nH]c4ccccc34)c3ccccc32)cc1` [Compound 135, N-(2-(1H-indol-3-yl)ethyl)-1-(4-methylbenzyl)-1H-indazole-3-carboxamide], for which the IC50 was 1000 to 2500 nM.
Still for that read-out and setting: next, `O=C(O)c1nn(Cc2ccc(Cl)cc2)c2ccc(F)cc12` [Compound 322]: 1000 to 2500 nM.
For the molecule `Cc1ccccc1CS(=O)(=O)NC(=O)c1nn(Cc2ccc(Cl)cc2)c2ccccc12` [Compound 288], under setting [1], the IC50 is 1000 to 2500 nM.
With `Cc1c(Cn2nc(C(=O)NCCc3nnc4ccccn34)c3ccccc32)oc2ccccc12` [Compound 573], the IC50 is under 100 nM.
Same read-out and setting: next, `O=C(NCCn1cc(-c2cccnc2)nn1)c1nn(Cc2ccc(Cl)cc2)c2ccccc12` [Compound 144, 1-(4-chlorobenzyl)-N-(2-(4-(pyridin-3-yl)-1H-1,2,3-triazol-1-yl)ethyl)-1H-indazole-3-carboxamide]: 100 to 500 nM; `O=C(NCc1ccc2nonc2c1)c1nn(Cc2ccc(Cl)cc2)c2ccccc12` [Compound 427]: over 2500 nM; `Cc1ccc(Cn2nc(C(=O)NCCc3nc4ccccc4o3)c3ccccc32)cc1` [Compound 103]: 1000 to 2500 nM.
`O=C(NCc1ccnc2ccccc12)c1nn(Cc2ccc(Cl)cc2)c2ccccc12` [Compound 371] gave an IC50 of over 2500 nM.
With `O=C(NCCc1cccc(C(F)(F)F)n1)c1nn(Cc2ccc(Cl)cc2)c2ccccc12` [Compound 117], the IC50 fell in the range of 1000 to 2500 nM.
Turning to `O=C(NCCc1nnc2n1CCCCC2)c1nn(Cc2ccc(Cl)cc2)c2ccccc12` [Compound 6], the IC50 was under 100 nM.
`CC(C)(C)c1cnc(Cn2nc(C(=O)NCCc3nnc4ccccn34)c3ccccc32)o1` [Compound 415] gave an IC50 of 501 to 1000 nM.
On the same count and under the same terms, next, `N#Cc1ccc(Cn2cc(C(=O)NCCc3ccccn3)c3ccccc32)cc1` [Compound 184]: 501 to 1000 nM; `N#Cc1ccccc1Cn1nc(C(=O)NCCc2cccnc2)c2ccccc21` [Compound 47]: 100 to 500 nM.
Same read-out and setting: the result for `O=C(NCCc1nnc2ccccn12)c1nn(Cc2ccc(Cl)cc2)c2cc(F)ccc12` [Compound 3] reads under 100 nM; that for `CN(C)c1cccc(Cn2nc(C(=O)NCCc3nnc4ccccn34)c3ccccc32)n1` [Compound 492], over 2500 nM.
Still for that read-out and setting: the result for `O=C(NCCc1nnc2ccccn12)c1nn(Cc2ccc3ccccc3n2)c2ccccc12` [Compound 412] reads 100 to 500 nM.
The molecule `COc1ccc(Cn2nc(C(=O)NCCc3cccnc3)c3ccccc32)cc1` [Compound 66] registered an IC50 of 100 to 500 nM.
Regarding `O=C(NCCn1cc(C2CCNCC2)nn1)c1nn(Cc2ccc(Cl)cc2)c2ccccc12` [Compound 146], the IC50 under setting [1] was over 2500 nM.
With `N#Cc1ccc(CNC(=O)c2nn(Cc3ccc(Cl)cc3)c3ccccc23)nc1` [Compound 404], the IC50 lay within 1000 to 2500 nM.
For the molecule `O=C(NCCc1nnc2ccccn12)c1nn(CCc2ccc(Cl)cc2)c2ccccc12` [Compound 442], under setting [1], the IC50 is over 2500 nM.
The same measure, in the same setting: the result for `Cc1nccn1-c1ccc(Cn2nc(C(=O)NCCc3nnc4ccccn34)c3ccccc32)cc1` [Compound 450] reads over 2500 nM.
With `Cc1ccc(Cn2nc(C(=O)NCCc3nc4c(s3)CCCC4)c3c(C#N)cccc32)cc1` [Compound 60], the IC50 was 100 to 500 nM.
The same measure, in the same setting: the result for `Cc1ccc(Cn2cc(C(=O)NCCc3ccnn3C)c3ccccc32)cc1` [Compound 187] reads 501 to 1000 nM; that for `O=C(NCCc1nnc2ccccn12)c1nn(Cc2ccc(Cl)cc2Cl)c2ccccc12` [Compound 525], under 100 nM.
As to `O=C(NCCc1cccnc1)c1nn(Cc2ccccc2Cl)c2ccccc12` [Compound 89], the IC50 fell in the range of 501 to 1000 nM.
On the same count and under the same terms, the result for `O=C(Cn1nc(C(=O)NCCc2nnc3ccccn23)c2ccccc21)c1ccc(F)c(F)c1` [Compound 517] reads 1000 to 2500 nM; that for `O=C(O)c1nn(Cc2ccc(C3CCCCC3)cc2)c2ccccc12` [Compound 332], over 2500 nM; that for `O=C(NCCc1cccs1)c1nn(Cc2ccc(Cl)cc2)c2ccccc12` [Compound 350], 1000 to 2500 nM.
Still for that read-out and setting: the result for `CC(=O)c1cccc(Cn2cc(C(=O)NCCc3cccnc3)c3ccccc32)c1` [Compound 232] reads over 2500 nM; that for `N#Cc1ccc2nc(CNC(=O)c3nn(Cc4ccc(Cl)cc4)c4ccccc34)cn2c1` [Compound 424], 501 to 1000 nM; that for `O=C(NCCc1ccc(O)cc1)c1nn(Cc2ccc(Cl)cc2)c2ccccc12` [Compound 40], 100 to 500 nM.
Regarding `O=C(NS(=O)(=O)c1ccc(C(F)(F)F)cc1)c1nn(Cc2ccc(OC(F)F)cc2)c2ccccc12` [Compound 276], the IC50 under setting [1] lay in the range of 1000 to 2500 nM.
`CC(C)c1cn(CCNC(=O)c2nn(Cc3ccc(Cl)cc3)c3ccccc23)nn1` [Compound 137, 1-(4-chlorobenzyl)-N-(2-(4-isopropyl-1H-1,2,3-triazol-1-yl)ethyl)-1H-indazole-3-carboxamide] yielded an IC50 of under 100 nM.
Still for that read-out and setting: next, `COc1ccc2nc(Cn3nc(C(=O)NCCc4nnc5ccccn45)c4ccccc43)n(C)c2c1` [Compound 567]: 1000 to 2500 nM.
`Cc1cccc(NC(=O)CS(=O)(=O)c2cn(CCN3CCC(F)(F)C3)c3ccccc23)c1` [Compound 254]: the IC50 under setting [1] was 1000 to 2500 nM.
`Cc1ccc(Cn2nc(C(=O)NCCc3nnc4n3CCCCC4)c3cccc(F)c32)cc1` [Compound 116] showed an IC50 of 1000 to 2500 nM.
Still for that read-out and setting: the result for `O=C(NCCc1nnc2ccccn12)c1nn(Cc2cc3ccccc3o2)c2ccccc12` [Compound 496] reads under 100 nM.
On the same count and under the same terms, the result for `N#Cc1ccc(Cn2nc(C(=O)NCCc3cccnc3)c3ccccc32)cc1` [Compound 72] reads 501 to 1000 nM; that for `O=C(NCCc1nc2c(s1)CCCC2)c1nn(Cc2ccccc2Cl)c2ccccc12` [Compound 95], 1000 to 2500 nM.
Still for that read-out and setting: next, `CCc1ccc(Cn2nc(C(=O)NCCc3nnc4ccccn34)c3ccccc32)cc1` [Compound 447]: 100 to 500 nM; `COc1ccc(CCNC(=O)c2cn(Cc3ccc(Cl)cc3)c3ccccc23)cn1` [Compound 168]: 100 to 500 nM.

(Values after patent US20240254089A1, “MODULATORS OF MAS-RELATED G-PROTEIN RECEPTOR X4 AND RELATED PRODUCTS AND METHODS” (ESCIENT PHARMACEUTICALS, INC., priority 2020, published 2024).)
